Test results from article PMC2713251, “Discovery of novel inhibitors of Streptococcus pneumoniae based on the virtual screening with the homology-modeled structure of histidine kinase (VicK)” (BMC Microbiology, 2009).

Target: T1, VicK' (cytoplasmic HisKA and HATPase_c domains of histidine kinase VicK) (Streptococcus pneumoniae, UniProt A0A0H2ZNH9)
T1 construct: gene walK
Experiment: Kinase-Glo luminescent assay of residual ATP (ATPase / autophosphorylation)
Format: biochemical
Conditions: read-out: IC50 (μM) for VicK' protein
Source text: Kinase-Glo luminescent assay of residual ATP (ATPase / autophosphorylation) on VicK' (cytoplasmic HisKA and HATPase_c domains of histidine kinase VicK)

T1 sequence (A0A0H2ZNH9 201-449): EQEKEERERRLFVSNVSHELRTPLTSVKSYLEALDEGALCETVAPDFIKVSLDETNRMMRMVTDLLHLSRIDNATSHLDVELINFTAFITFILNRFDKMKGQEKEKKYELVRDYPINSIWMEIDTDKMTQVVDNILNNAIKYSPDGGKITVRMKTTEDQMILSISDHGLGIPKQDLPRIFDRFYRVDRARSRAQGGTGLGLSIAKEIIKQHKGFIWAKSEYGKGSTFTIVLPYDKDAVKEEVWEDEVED

`Nc1nonc1C(=O)NCCNCc1ccc(OCc2cccs2)cc1` [compound 1, Compound 1] and `COc1ccc(-c2ccc(CNCCNC(=O)c3nonc3N)o2)cc1Cl` [compound 2, Compound 2] are within 1.5-fold of each other in IC50: 542 µM for the first, 562 µM for the second.

Going from `COc1ccc(CCNCc2ccc(-c3ccccc3)o2)cc1OC` [compound 3, Compound 3] to `Cn1nnnc1SCCCNCc1ccc(-c2ccccc2F)o1` [compound 4, Compound 4], the IC50 rises from 503 µM to over 1000 µM.

First: Cn1nnnc1SCCCNCc1ccc(-c2ccc(F)c(Cl)c2)o1 [compound 5, Compound 5]
Second: c1ccc2[nH]c(Nc3ccc(-c4ccc(Nc5nc6ccccc6[nH]5)cc4)cc3)nc2c1 [compound 6, Compound 6]
The IC50 of the first is 18-fold higher: 598 µM for the first, 32.6 µM for the second.
